# Measurements published in publication PMC6429214, “Design, Synthesis and Biological Evaluation of Isoxazole-Based CK1 Inhibitors Modified with Chiral Pyrrolidine Scaffolds” (Molecules, 2019).
# Columns and labels:
# Assay in all cases: 33PanQinase panel
# Type in all cases: biochemical
# STK17A = biological target: T1, STK17A (Homo sapiens, UniProt Q9UEE5); conditions: read-out: Residual Activity (%)
# T1 construct: purchased ProQinase
# Protocol: (§1) Figure 5 Dendrogram representation of the selectivity profile of 29d at a concentration of 1 μM in a panel of 320 wild-type kinases (ProQinase, Freiburg, Germany). The residual kinase activity was determined compared to DMSO control. Images were generated using TREEspot Software Tool, DISCOVERX CORPORATION 2010. […]
# (§2) Table S2. Selectivity profile of compound 29d. The inhibitor has been screened at a concentration of 1 µM over a panel of 320 wild-type protein kinases by ProQinase GmbH (Freiburg, Germany) using an activity-based radiometric 33PanQinase® assay. Results are presented as percentage of residual kinase activity relative to […]
# (§3) control. The final DMSO concentration was 1 % in each reaction-mix. Classification of protein kinase families refers to Manning et al. (Manning, G.; Whyte, D. B.; Martinez, R.; Hunter, T.; Sudarsanam, S. The Protein Kinase Complement of the Human Genome. Science 2002, 298, 1912–1934): AGC = containing PKA, PKG, PKC families; […] = containing Cdk, MAPK, GSK3, CLK families; STE = homologs of yeast sterile 7, sterile 11, sterile 20 kinases; TK = tyrosine kinase; TKL = tyrosine kinase-like.
# (§4) Kinase name Kinase family Residual Activity (%)
# MKNK2 = biological target: T2, MKNK2 (Homo sapiens, UniProt Q9HBH9); conditions: MKNK2, 1 µM; read-out: Residual Activity (%)
# T2 construct: purchased ProQinase
# Protocol: as §1, §2, §3, §4
# GSK3-beta = biological target: T3, GSK3-beta (Homo sapiens, UniProt P49841); conditions: read-out: Residual Activity (%)
# T3 construct: purchased ProQinase
# Protocol: as §1, §2, §3, §4
# TYRO3 = biological target: T4, TYRO3 (Homo sapiens, UniProt Q06418); conditions: TYRO3, 1 µM; read-out: Residual Activity (%)
# T4 construct: purchased ProQinase
# T4 sequence (Q06418 41-890): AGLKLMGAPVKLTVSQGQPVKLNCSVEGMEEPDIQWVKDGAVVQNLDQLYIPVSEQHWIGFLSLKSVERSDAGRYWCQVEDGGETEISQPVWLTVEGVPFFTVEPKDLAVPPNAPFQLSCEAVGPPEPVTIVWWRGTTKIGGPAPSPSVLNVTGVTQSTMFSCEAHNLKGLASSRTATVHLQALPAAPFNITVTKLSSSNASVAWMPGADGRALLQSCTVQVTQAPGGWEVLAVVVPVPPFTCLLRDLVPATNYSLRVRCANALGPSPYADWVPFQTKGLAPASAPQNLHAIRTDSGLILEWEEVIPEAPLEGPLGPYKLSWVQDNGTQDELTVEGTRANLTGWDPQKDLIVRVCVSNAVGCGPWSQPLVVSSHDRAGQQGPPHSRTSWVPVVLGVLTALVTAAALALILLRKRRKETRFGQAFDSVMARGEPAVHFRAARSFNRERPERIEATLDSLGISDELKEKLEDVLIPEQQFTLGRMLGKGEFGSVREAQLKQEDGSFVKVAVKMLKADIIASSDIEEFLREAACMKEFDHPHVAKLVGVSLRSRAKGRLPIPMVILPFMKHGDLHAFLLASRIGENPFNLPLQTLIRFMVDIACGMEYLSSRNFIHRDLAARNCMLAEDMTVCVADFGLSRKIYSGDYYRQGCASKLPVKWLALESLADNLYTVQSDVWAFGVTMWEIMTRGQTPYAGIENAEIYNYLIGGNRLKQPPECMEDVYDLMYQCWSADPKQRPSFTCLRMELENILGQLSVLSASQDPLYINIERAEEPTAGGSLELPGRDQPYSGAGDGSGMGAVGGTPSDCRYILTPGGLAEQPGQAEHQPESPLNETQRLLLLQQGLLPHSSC
# Protocol: as §1, §2, §3, §4
# NLK = biological target: T5, NLK (Homo sapiens, UniProt Q9UBE8); conditions: read-out: Residual Activity (%)
# T5 construct: purchased ProQinase
# Protocol: as §1, §2, §3, §4
# PIM1 = biological target: T6, PIM1 (Homo sapiens, UniProt P11309); conditions: PIM1, 1 µM; read-out: Residual Activity (%)
# T6 construct: purchased ProQinase
# Protocol: as §1, §2, §3, §4
# ERK5 = biological target: T7, ERK5 (Homo sapiens, UniProt Q13164); conditions: ERK5, 1 µM; read-out: Residual Activity (%)
# T7 construct: purchased ProQinase
# Protocol: as §1, §2, §3, §4
# GRK6 = biological target: T8, GRK6 (Homo sapiens, UniProt P43250); conditions: GRK6, 1 µM; read-out: Residual Activity (%)
# T8 construct: purchased ProQinase
# T8 sequence (P43250 whole entry): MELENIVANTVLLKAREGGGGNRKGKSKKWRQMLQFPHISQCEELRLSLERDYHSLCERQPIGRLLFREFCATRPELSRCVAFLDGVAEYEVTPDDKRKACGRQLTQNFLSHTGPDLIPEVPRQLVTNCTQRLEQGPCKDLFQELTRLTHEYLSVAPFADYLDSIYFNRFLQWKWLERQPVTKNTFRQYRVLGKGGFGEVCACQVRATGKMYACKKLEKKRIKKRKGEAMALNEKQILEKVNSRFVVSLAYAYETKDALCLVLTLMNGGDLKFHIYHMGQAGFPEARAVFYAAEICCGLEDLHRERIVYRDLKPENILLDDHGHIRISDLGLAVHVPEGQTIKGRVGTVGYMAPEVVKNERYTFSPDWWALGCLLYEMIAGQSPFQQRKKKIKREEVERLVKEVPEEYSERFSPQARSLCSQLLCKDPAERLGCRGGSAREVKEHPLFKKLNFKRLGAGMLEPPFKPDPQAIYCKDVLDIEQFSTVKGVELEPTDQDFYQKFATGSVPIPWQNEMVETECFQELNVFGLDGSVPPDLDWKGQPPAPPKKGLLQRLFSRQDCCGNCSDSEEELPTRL
# Protocol: as §1, §2, §3, §4
# PIM3 = biological target: T9, PIM3 (Homo sapiens, UniProt Q86V86); conditions: PIM3, 1 µM; read-out: Residual Activity (%)
# T9 construct: purchased ProQinase
# Protocol: as §1, §2, §3, §4
# PRKX = biological target: T10, PRKX (Homo sapiens, UniProt P51817); conditions: read-out: Residual Activity (%)
# T10 construct: purchased ProQinase
# Protocol: as §1, §2, §3, §4
# AKT1 aa106-480 = biological target: T11, AKT1 aa106-480 (Homo sapiens, UniProt P31749); conditions: AKT1 aa106-480, 1 µM; read-out: Residual Activity (%)
# T11 construct: purchased ProQinase
# T11 sequence (P31749 106-480 limits assumed): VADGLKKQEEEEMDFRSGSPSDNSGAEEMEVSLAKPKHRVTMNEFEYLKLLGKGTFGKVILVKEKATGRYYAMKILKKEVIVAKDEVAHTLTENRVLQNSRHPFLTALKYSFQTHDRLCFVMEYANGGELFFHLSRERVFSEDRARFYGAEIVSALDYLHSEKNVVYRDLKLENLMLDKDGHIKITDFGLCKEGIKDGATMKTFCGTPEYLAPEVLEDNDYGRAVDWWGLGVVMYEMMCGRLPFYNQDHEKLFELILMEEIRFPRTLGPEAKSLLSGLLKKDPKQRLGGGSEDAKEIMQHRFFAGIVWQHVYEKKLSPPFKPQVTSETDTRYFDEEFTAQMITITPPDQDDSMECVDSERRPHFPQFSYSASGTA
# Protocol: as §1, §2, §3, §4
# CDK1/CycB1 = biological target: T12, CDK1/CycB1 (Homo sapiens, UniProt P06493); conditions: CDK1/CycB1, 1 µM; read-out: Residual Activity (%)
# T12 construct: purchased ProQinase
# Protocol: as §1, §2, §3, §4
# TSSK1 = biological target: T13, TSSK1 (Homo sapiens, UniProt Q9BXA7); conditions: TSSK1, 1 µM; read-out: Residual Activity (%)
# T13 construct: purchased ProQinase
# Protocol: as §1, §2, §3, §4
# p38-delta = biological target: T14, p38-delta (Homo sapiens, UniProt O15264); conditions: read-out: Residual Activity (%)
# T14 construct: purchased ProQinase
# Protocol: as §1, §2, §3, §4
# SRPK2 = biological target: T15, SRPK2 (Homo sapiens, UniProt P78362); conditions: SRPK2, 1 µM; read-out: Residual Activity (%)
# T15 construct: purchased ProQinase
# T15 sequence (P78362 whole entry): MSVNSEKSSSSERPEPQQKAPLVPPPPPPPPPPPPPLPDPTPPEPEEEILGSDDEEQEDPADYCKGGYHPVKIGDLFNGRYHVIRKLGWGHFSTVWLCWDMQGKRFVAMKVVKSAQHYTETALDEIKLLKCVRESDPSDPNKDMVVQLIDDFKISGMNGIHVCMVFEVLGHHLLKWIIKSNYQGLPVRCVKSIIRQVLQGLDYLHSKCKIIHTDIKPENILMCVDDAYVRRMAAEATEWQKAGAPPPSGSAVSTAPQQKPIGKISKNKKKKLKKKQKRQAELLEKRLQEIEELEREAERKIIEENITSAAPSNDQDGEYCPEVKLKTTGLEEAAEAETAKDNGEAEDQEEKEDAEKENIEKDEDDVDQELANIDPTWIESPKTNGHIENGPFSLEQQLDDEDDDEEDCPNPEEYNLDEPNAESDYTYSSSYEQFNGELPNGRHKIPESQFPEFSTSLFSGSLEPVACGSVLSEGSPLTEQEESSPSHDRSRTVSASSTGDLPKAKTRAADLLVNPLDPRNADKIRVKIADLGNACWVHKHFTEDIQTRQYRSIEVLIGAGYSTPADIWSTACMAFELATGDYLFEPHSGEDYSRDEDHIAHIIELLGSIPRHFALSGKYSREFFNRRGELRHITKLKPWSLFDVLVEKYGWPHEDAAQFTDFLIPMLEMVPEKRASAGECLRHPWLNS
# Protocol: as §1, §2, §3, §4
# PKC-mu = biological target: T16, PKC-mu (Homo sapiens, UniProt Q15139); conditions: read-out: Residual Activity (%)
# T16 construct: purchased ProQinase
# Protocol: as §1, §2, §3, §4
# GRK2 = biological target: T17, GRK2 (Homo sapiens, UniProt P25098); conditions: GRK2, 1 µM; read-out: Residual Activity (%)
# T17 construct: purchased ProQinase
# Protocol: as §1, §2, §3, §4
# RPS6KA1 = biological target: T18, RPS6KA1 (Homo sapiens, UniProt Q15418); conditions: RPS6KA1, 1 µM; read-out: Residual Activity (%)
# T18 construct: purchased ProQinase
# T18 sequence (Q15418 whole entry): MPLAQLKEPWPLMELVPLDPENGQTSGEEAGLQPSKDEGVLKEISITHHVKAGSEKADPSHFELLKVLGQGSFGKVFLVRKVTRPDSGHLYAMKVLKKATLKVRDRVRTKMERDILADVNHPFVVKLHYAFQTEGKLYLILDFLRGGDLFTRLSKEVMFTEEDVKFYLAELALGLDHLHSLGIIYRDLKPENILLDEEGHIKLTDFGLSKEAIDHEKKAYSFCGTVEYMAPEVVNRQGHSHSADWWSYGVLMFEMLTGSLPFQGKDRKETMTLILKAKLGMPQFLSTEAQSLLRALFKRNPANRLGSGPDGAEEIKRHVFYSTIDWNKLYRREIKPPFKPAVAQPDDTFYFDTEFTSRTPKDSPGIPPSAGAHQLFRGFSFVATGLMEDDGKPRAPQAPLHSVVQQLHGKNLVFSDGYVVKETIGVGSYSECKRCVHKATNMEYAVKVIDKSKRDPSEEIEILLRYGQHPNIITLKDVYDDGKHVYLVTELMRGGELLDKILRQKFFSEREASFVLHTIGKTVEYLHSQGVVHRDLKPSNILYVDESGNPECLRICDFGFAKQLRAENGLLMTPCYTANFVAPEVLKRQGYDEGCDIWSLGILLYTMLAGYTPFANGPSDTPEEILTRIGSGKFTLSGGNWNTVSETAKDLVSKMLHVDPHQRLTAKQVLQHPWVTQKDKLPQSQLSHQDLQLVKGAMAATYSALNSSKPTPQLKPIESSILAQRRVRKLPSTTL
# Protocol: as §1, §2, §3, §4
# DAPK1 = biological target: T19, DAPK1 (Homo sapiens, UniProt P53355); conditions: DAPK1, 1 µM; read-out: Residual Activity (%)
# T19 construct: purchased ProQinase
# Protocol: as §1, §2, §3, §4
# MAPKAPK5 = biological target: T20, MAPKAPK5 (Homo sapiens, UniProt Q8IW41); conditions: MAPKAPK5, 1 µM; read-out: Residual Activity (%)
# T20 construct: purchased ProQinase
# Protocol: as §1, §2, §3, §4
# MAP4K4 = biological target: T21, MAP4K4 (Homo sapiens, UniProt O95819); conditions: MAP4K4, 1 µM; read-out: Residual Activity (%)
# T21 construct: purchased ProQinase
# Protocol: as §1, §2, §3, §4
# TIE2 = biological target: T22, TIE2 (Homo sapiens, UniProt Q02763); conditions: TIE2, 1 µM; read-out: Residual Activity (%)
# T22 construct: purchased ProQinase
# Protocol: as §1, §2, §3, §4
# VEGF-R1 = biological target: T23, VEGF-R1 (Homo sapiens, UniProt P17948); conditions: VEGF-R1, 1 µM; read-out: Residual Activity (%)
# T23 construct: purchased ProQinase
# Protocol: as §1, §2, §3, §4
# CK1-gamma1 = biological target: T24, CK1-gamma1 (Homo sapiens, UniProt Q9HCP0); conditions: CK1-gamma1, 1 µM; read-out: Residual Activity (%)
# T24 construct: purchased ProQinase
# T24 sequence (Q9HCP0 whole entry): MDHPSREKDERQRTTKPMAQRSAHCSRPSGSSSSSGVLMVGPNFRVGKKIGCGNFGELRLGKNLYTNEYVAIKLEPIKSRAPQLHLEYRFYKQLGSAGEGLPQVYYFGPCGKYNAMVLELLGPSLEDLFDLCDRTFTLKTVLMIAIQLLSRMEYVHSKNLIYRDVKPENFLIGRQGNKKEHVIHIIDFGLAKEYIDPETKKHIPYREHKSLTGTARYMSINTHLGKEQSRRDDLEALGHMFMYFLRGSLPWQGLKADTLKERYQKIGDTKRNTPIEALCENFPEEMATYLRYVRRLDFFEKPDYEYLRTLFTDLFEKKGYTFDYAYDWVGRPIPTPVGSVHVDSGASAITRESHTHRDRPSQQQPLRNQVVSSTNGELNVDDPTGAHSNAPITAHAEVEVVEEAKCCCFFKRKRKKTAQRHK
# Protocol: as §1, §2, §3, §4
# CDK1/CycE1 = biological target: T25, CDK1/CycE1 (Homo sapiens, UniProt P06493); conditions: CDK1/CycE1, 1 µM; read-out: Residual Activity (%)
# T25 construct: purchased ProQinase
# Protocol: as §1, §2, §3, §4
# RPS6KA3 = biological target: T26, RPS6KA3 (Homo sapiens, UniProt P51812); conditions: RPS6KA3, 1 µM; read-out: Residual Activity (%)
# T26 construct: purchased ProQinase
# Protocol: as §1, §2, §3, §4
# TAOK3 = biological target: T27, TAOK3 (Homo sapiens, UniProt Q9H2K8); conditions: TAOK3, 1 µM; read-out: Residual Activity (%)
# T27 construct: purchased ProQinase
# Protocol: as §1, §2, §3, §4
# RPS6KA5 = biological target: T28, RPS6KA5 (Homo sapiens, UniProt O75582); conditions: RPS6KA5, 1 µM; read-out: Residual Activity (%)
# T28 construct: purchased ProQinase
# T28 sequence (O75582 whole entry): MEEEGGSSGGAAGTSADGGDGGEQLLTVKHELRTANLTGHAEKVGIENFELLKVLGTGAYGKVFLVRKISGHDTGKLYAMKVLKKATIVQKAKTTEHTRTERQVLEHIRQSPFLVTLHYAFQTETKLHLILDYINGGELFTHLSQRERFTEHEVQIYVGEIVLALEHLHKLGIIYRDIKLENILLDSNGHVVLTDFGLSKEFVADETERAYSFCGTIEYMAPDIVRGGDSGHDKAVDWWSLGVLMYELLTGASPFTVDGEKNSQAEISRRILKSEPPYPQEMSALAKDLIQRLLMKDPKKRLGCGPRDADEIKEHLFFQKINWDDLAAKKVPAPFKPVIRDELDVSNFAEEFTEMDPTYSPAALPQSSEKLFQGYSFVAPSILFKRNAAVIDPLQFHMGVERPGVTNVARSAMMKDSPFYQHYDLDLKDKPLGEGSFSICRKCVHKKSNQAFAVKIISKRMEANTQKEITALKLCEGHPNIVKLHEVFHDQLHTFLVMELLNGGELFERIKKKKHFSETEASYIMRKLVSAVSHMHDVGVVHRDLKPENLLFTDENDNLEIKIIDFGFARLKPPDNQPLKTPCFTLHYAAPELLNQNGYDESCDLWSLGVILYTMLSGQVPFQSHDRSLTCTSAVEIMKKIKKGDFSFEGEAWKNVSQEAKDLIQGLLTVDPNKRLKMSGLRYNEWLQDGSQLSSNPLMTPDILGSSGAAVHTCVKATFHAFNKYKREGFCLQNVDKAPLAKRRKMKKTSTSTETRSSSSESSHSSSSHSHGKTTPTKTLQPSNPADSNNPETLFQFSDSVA
# Protocol: as §1, §2, §3, §4
structure (smiles),measurement,setting,value
COc1ccc(-c2cc(C(=O)Nc3cc(-c4c(-c5ccc(F)cc5)noc4C(C)C)ccn3)n(CC3NCC(O)C3O)c2)cc1 (stereo not shown) [29d],remaining activity at 1 µM,STK17A,102%
same,remaining activity at 1 µM,MKNK2,92%
same,remaining activity at 1 µM,GSK3-beta,100%
same,remaining activity at 1 µM,TYRO3,115%
same,remaining activity at 1 µM,NLK,71%
same,remaining activity at 1 µM,PIM1,94%
same,remaining activity at 1 µM,ERK5,93%
same,remaining activity at 1 µM,GRK6,101%
same,remaining activity at 1 µM,PIM3,98%
same,remaining activity at 1 µM,PRKX,92%
same,remaining activity at 1 µM,AKT1 aa106-480,84%
same,remaining activity at 1 µM,CDK1/CycB1,107%
same,remaining activity at 1 µM,TSSK1,109%
same,remaining activity at 1 µM,p38-delta,99%
same,remaining activity at 1 µM,SRPK2,107%
same,remaining activity at 1 µM,PKC-mu,94%
same,remaining activity at 1 µM,GRK2,87%
same,remaining activity at 1 µM,RPS6KA1,84%
same,remaining activity at 1 µM,DAPK1,101%
same,remaining activity at 1 µM,MAPKAPK5,110%
same,remaining activity at 1 µM,MAP4K4,83%
same,remaining activity at 1 µM,TIE2,110%
same,remaining activity at 1 µM,VEGF-R1,119%
same,remaining activity at 1 µM,CK1-gamma1,88%
same,remaining activity at 1 µM,CDK1/CycE1,100%
same,remaining activity at 1 µM,RPS6KA3,107%
same,remaining activity at 1 µM,TAOK3,96%
same,remaining activity at 1 µM,RPS6KA5,101%
